The conditions of data set [1]: source not stated; cited from earlier work.
The nature of data set [2]: Pharmacokinetics of per oral oxeladin in plasma and brain. It counts as in vivo, rat. The following applies: for time after dosing at which detected in brain / time after dosing at which detected in plasma: rat, 135 mg/kg. The procedure: Evaluating the pharmacokinetics of Sigma receptor agonists. […] Whole blood was harvested into EDTA coated tubes at 30, 60, 120, 240, 720, and 1440 minutes from rats following euthanasia by CO2 inhalation. Plasma was processed from whole blood by centrifugation for 10 min at 10,000 rpm and frozen at −80° C. until assayed. The brains were collected, weighed, snap frozen in liquid nitrogen, and stored at −80° C. until processed.
For standards, 98 μl blank plasma was added to an Eppendorf tube spiked with 2 μl of […] (IS). For QCs, add 98.8 μl blank plasma was added to an Eppendorf tube spiked with 1.2 μl of IS. 100 μl plasma was mixed with 200 μl of acetonitrile containing 0.15% formic acid and 37.5 ng/ml IS (IS final conc.=25 ng/ml), and 100 microliters brain homogenized solution was mixed with 200 microliters of acetonitrile containing 0.15% formic acid and 60 ng/ml IS (IS final conc.=40 ng/ml). The samples were vortexed 15 sec, incubated at room temp for 10 min and spun 2×13,200 rpm in a standard microcentrifuge. The supernatant was then analyzed by LC/MS/MS (QTRAP® 3200) according to the following parameters:
Ion Source/Gas Parameters: CUR=25, CAD=medium, IS=5000, TEM=700, GS1=70, GS2=70.
Buffer A: Water+0.1% formic acid; Buffer B: ACN+0.1% formic acid; flow rate 1.5 ml/min; column Agilent Eclipse XDB-C18 column, 5 micron packing 50×4.6 mm size; 0-1.5 min 3% B, 1.5-2.0 min gradient to 100% B, 2.0-3.5 min 100% B, 3.5-3.6 min gradient to 3% B, 3.6-4.5 3% B. IS: n-benzylbenzamide (Sigma-Aldrich, lot #02914LH, in ACN, transition 212.1 to 91.1); Compound transition 336.127/100.1.

Data set [3] relates to rat model of focal cerebral ischemia (tMCAO). As to the kind of experiment: BrdU cell proliferation in the brain after tMCAO. It counts as in vivo. On the procedure:
Two days before tMCAO rats were trained to lick 5% sucrose from a 1 ml syringe. After behavioral assessment on Day 1 after tMCAO, rats were randomly assigned to 4 groups in a blinded fashion. Groups included sucrose Vehicle, or 45, 68 or 135 mg/kg oxeladin. Oxeladin was prepared in 5% sucrose and provided to rats from the end of a 1 ml syringe. Starting 48 hours after stroke, rats were administered treatments daily from day 3 to day 14. On days 3-14 rats were injected i.p. with 50 mg/kg bromodeoxyuridine (BrdU; Fisher Bioreagents). At the conclusion of the study, rats were euthanized under deep isoflurane anesthesia. Rats were transcardially perfused with cold saline and either decapitated for brain collection and flash freezing of brain tissue or transcardially perfused with 4% formaldehyde for immunohistochemical studies.
Actions of oxeladin on proliferation in the brain. Fourteen days after tMCAO, rats were transcardially perfused with saline and 4% formaldehyde, as described above. Brains were removed and post-fixed for 48 hours in 4% formaldehyde and then moved to phosphate buffer. Brains were blocked and serial […] coronal sections through the subventricular zone (SVZ) and dorsal hippocampus (HP) were made with a cryostat. Sections were affixed to glass slides and stored at −20° C. until processed. Sections were subjected to antigen retrieval with 10 mM sodium citrate (pH 6.0). Slides were immersed in preheated buffer, placed in a commercial vegetable steamer at 99° C. for 15 minutes and allowed to cool before processing. Immunohistochemistry was performed for the detection of BrdU with a monoclonal primary antibody (Cell Signaling Technology #5292S, 1:5000), followed by a biotinylated secondary antibody (Jackson Immuno Research #715066151, 1:400). […] In the striatum and cortex, the percent area containing BrdU positive cells was assessed in wide-field images captured with a 4× objective using a Keyence BZ-X800 as described above. In the dentate gyrus, individual BrdU+ cells were counted by a treatment-blinded observer in 3 sections per rat (n=6/group). In the SVZ, BrdU+ staining was assessed by a treatment-blinded observer using NEUROLUCIDA® software (Microbrightfield) to map positive cells on the ischemic side (n=4-6).

The test system of data set [4] is BDNF. Briefly: Steady-state BDNF in brain homogenates by ELISA (rats of the maximum tolerated dose study). It counts as in vivo, rat. The note with it: 135 mg/kg p.o., ten days. The procedure: Actions of oxeladin on BDNF in the brain. […] Cerebral cortex and hippocampal samples were homogenized in TBS supplemented with 0.1% NP-40 detergent and protease inhibitor cocktail. Protein concentrations were determined with a PIERCE® BCA assay (ThermoPierce). Samples were diluted 1:20 and assayed in triplicate according to manufacturer's instructions and assayed a FLEXSTATION® 3 plate reader (Molecular Devices, Sunnyvale, CA).

The mark [5] stands for this setting: 135 mg/kg p.o., listed as oxeladin.
The mark [6] stands for this setting: 135 mg/kg starting 48 hours after tMCAO, 14-15 days after tMCAO, vs vehicle.

SMILES strings stand for the structures. Entries after “also recorded” stand apart in the source; their conditions may differ. Where only a bound is given, the exact number is not on record here.

As for `CCN(CC)CCOCCOC(=O)C(CC)(CC)c1ccccc1` [Oxeladin], in data set [1], the LogP (usually the decadic logarithm of the partition coefficient of the neutral form, usually between octanol and water) is 4.43. The “half-life, brain” value in data set [2] (rat brain, 135 mg/kg oral gavage (figure legend)) is on record as “greater than 4 hours”. Moreover, in data set [2] (rat brain, 135 mg/kg p.o.), the “AUClast, brain” value was found to be 423726 ng·min/g; the “Terminal T1/2 (terminal elimination half-life), brain” value turned out to be 5.32 h; the “Tmax (time to obtain maximum concentration), brain” value is 0.5 h. Moreover, in data set [2] (rat plasma, 135 mg/kg oral gavage (figure legend)), the “half-life, plasma” value is “greater than 4 hours”. Besides, in data set [2] (rat plasma, 135 mg/kg p.o.), the “AUClast, plasma” value was 122293 ng·min/mL; the “Terminal T1/2 (terminal elimination half-life), plasma” value stood at 4.15 h; the “Tmax (time to obtain maximum concentration), plasma” value was determined as 0.5 h. Moreover, in data set [2] (135 mg/kg p.o.), the “time after dosing at which detected in brain” value is no more than 30 min and the “time after dosing at which detected in plasma” value is no more than 30 min. Moreover, in data set [2] (setting [5]), the “time after dosing at which detected in brain” value worked out at 30 min and the “time after dosing at which detected in plasma” value is 30 min. Besides, in data set [3] (setting [6]), the “BrdU staining (area of BrdU+ cells) in the cerebral cortex” value is “significantly smaller area; also recorded: significantly reduced” and the “BrdU staining in the striatum” value is on record as “did not alter BrdU staining”. Besides, in data set [3] (135 mg/kg, 14-15 days after tMCAO, vs vehicle), the “BrdU positive cells in the subventricular zone (SVZ), infarcted hemisphere” value is “no differences in BrdU+ cells between treatment groups; also recorded: did not reveal a significant difference”. Further, in data set [3] (overall conclusion), the “cell proliferation in the brain or SVZ after tMCAO” value is listed as “does not enhance cell proliferation”. For the same compound, in data set [4], the “BDNF levels in the hippocampus (ELISA)” value is “not in the hippocampus”. Further, in data set [4] (P<0.05), the “BDNF levels in the cerebral cortex (ELISA)” value is recorded as “significant increase; also recorded: significantly increase”.
